Results as given in patent US10723692B2, “Lipids and lipid nanoparticle formulations for delivery of nucleic acids” (Acuitas Therapeutics, Inc., priority 2014, dated 2020).
Like-named read-outs stand apart in the source and are kept apart here.

Legend:
[1] = system: luciferase expression in the liver; assay: In vivo luciferase mRNA expression rodent model (LNP, liver luciferase); parameters: species or system C57BL/6 mice; settings: tail vein, liver 4 hours; for Liver Luc @ 0.3 mg/kg (ng luc/g liver): 0.3 mg mRNA/kg; for Liver Luc @ 1.0 mg/kg (ng luc/g liver): 1.0 mg mRNA/kg
Experimental: Cationic lipid (MC3), DSPC, cholesterol and PEG-lipid were solubilized in ethanol at a molar ratio of 50:10:38.5:1.5. Lipid nanoparticles (LNP) were prepared at a total lipid to mRNA weight ratio of approximately 10:1 to 30:1. Briefly, the mRNA was diluted to 0.2 mg/mL in 10 to 50 mM citrate buffer, pH 4. Syringe pumps were used to mix the ethanolic lipid solution with the mRNA aqueous solution at a ratio of about 1:5 to 1:3 (vol/vol) with total flow rates above 15 ml/min. The ethanol was then removed and the external buffer replaced with PBS by dialysis. Finally, the lipid nanoparticles were filtered through a 0.2 μm pore sterile filter. Lipid nanoparticle particle size was 70-90 nm diameter as determined by quasi-elastic light scattering using a Nicomp 370 submicron particle sizer (Santa Barbara, Calif.).
Studies were performed in 6-8 week old female C57BL/6 mice (Charles River) according to guidelines established by an institutional animal care committee (ACC) and the Canadian Council on Animal Care (CCAC). Varying doses of mRNA-lipid nanoparticle were systemically administered by tail vein injection and animals euthanized at specific time points (1, 2, 4, 8 and 24 hrs) post-administration. Liver and spleen were collected in pre-weighted tubes, weights determined, immediately snap frozen in liquid nitrogen and stored at −80° C. until processing for analysis.
For liver, approximately 50 mg was dissected for analyses in a 2 mL FastPrep tubes (MP Biomedicals, Solon Ohio). ¼″ ceramic sphere (MP Biomedicals) was added to each tube and 500 μL of Glo Lysis Buffer—GLB (Promega, Madison Wis.) equilibrated to room temperature was added to liver tissue. Liver tissues were homogenized with the FastPrep24 instrument (MP Biomedicals) at 2×6.0 m/s for 15 seconds. Homogenate was incubated at room temperature for 5 minutes prior to a 1:4 dilution in GLB and assessed using SteadyGlo Luciferase assay system (Promega). Specifically, 50 μL of diluted tissue homogenate was reacted with 50 μL of SteadyGlo substrate, shaken for 10 seconds followed by 5 minute incubation and then quantitated using a CentroXS^3 LB 960 luminometer (Berthold Technologies, Germany). The amount of protein assayed was determined by using the BCA protein assay kit (Pierce, Rockford Ill.). Relative luminescence units (RLU) were then normalized to total ug protein assayed. To convert RLU to ng luciferase a standard curve was generated with QuantiLum Recombinant Luciferase (Promega). Based in the data provided in FIG. 1, the four-hour time point was chosen for efficacy evaluation of the lipid formulations (see EXAMPLE 48).
The FLuc mRNA (L-6107) from Trilink Biotechnologies will express a luciferase protein, originally isolated from the firefly, Photinus pyralis. FLuc is commonly used in mammalian cell culture to measure both gene expression and cell viability. It emits bioluminescence in the presence of the substrate, luciferin. This capped and polyadenylated mRNA is fully substituted with 5-methylcytidine and pseudouridine.
The cationic lipids shown in Table 2 have previously been tested with nucleic acids. For comparative purposes, these lipids were also used to formulate lipid nanoparticles containing the FLuc mRNA (L-6107) using an in line mixing method, as described in EXAMPLE 47 and in PCT/US10/22614, which is hereby incorporated by reference in its entirety. Lipid nanoparticles were formulated using the following molar ratio: 50% Cationic lipid/10% distearoylphosphatidylcholine (DSPC)/38.5% Cholesterol/1.5% PEG lipid (“PEG-DMG”, i.e., (1-(monomethoxy-polyethyleneglycol)-2,3-dimyristoylglycerol, with an average PEG molecular weight of 2000). Relative activity was determined by measuring luciferase expression in the liver 4 hours following administration via tail vein injection as described in EXAMPLE 47. The activity was compared at a dose of 0.3 and 1.0 mg mRNA/kg and expressed as ng luciferase/g liver measured 4 hours after administration, as described in EXAMPLE 47. […]

[2] = pKa of formulated cationic lipids in lipid nanoparticles (TNS fluorescence assay); assay type: physicochemical; settings: read-out: pKa
Experimental: As described elsewhere, the pKa of formulated cationic lipids is correlated with the effectiveness of LNPs for delivery of nucleic acids (see Jayaraman et al, Angewandte Chemie, International Edition (2012), 51(34), 8529-8533; Semple et al, Nature Biotechnology 28, 172-176 (2010)). The preferred range of pKa is ˜5 to ˜7. […] Lipid nanoparticles comprising of cationic lipid/DSPC/cholesterol/PEG-lipid (50/10/38.5/1.5 mol %) in PBS at a concentration of 0.4 mM total lipid are prepared using the in-line process as described in EXAMPLE 47. TNS was prepared as a 100 μM stock solution in distilled water. Vesicles were diluted to 24 μM lipid in 2 mL of buffered solutions containing, 10 mM HEPES, 10 mM MES, 10 mM ammonium acetate, 130 mM NaCl, where the pH ranged from 2.5 to 11. An aliquot of the TNS solution was added to give a final concentration of 1 μM and following vortex mixing fluorescence intensity was measured at room temperature in a SLM Aminco Series 2 Luminescence Spectrophotometer using excitation and emission wavelengths of 321 nm and 445 nm. A sigmoidal best fit analysis was applied to the fluorescence data and the pKa was measured as the pH giving rise to half-maximal fluorescence intensity (see FIG. 2).

[3] = Table 6, LNP with 1.5% PEG-lipid (42-6)
[4] = Table 3, LNP with 1.5% PEG-DMA (42-6), FLuc mRNA
[5] = Table 3, in LNP cationic lipid/DSPC/cholesterol/PEG-lipid 50/10/38.5/1.5 mol %

Row | Compound | pKa ([2]; Table 5, in LNP) | pKa ([2]; Table 6, in LNP) | pKa [2, 5] | Liver Luc @ 0.3 mg/kg (ng luc/g liver) [1, 3] [ng luc/g liver] | Liver Luc @ 1.0 mg/kg (ng luc/g liver) [1, 3] [ng luc/g liver] | Liver Luc @ 0.3 mg/kg (ng luc/g liver) [1, 4] [ng luc/g liver] | Liver Luc @ 1.0 mg/kg (ng luc/g liver) [1, 4] [ng luc/g liver]
1 | CCCCC/C=C\C/C=C\CCCCCCCCN(CCCCCCCC/C=C\C/C=C\CCCCC)CCN(C)C [A, reference compound] | 6.26 |  |  | 77 ± 40 | 203 ± 122 |  | 
2 | CCCCC/C=C\C/C=C\CCCCCCCCN(CCCCCCCC/C=C\C/C=C\CCCCC)CCCN(C)C [B, reference compound] |  | 6.68 |  | 3 ± 0.8 | 12 ± 4 |  | 
3 | CCCCC/C=C\C/C=C\CCCCCCCCN(CCCCCCCC/C=C\C/C=C\CCCCC)CCCCN(C)C [C, reference compound] |  | 7.32 |  | 2 ± 0.5 | 7 ± 2 |  | 
4 | C/C(=C\COC(=O)CCCCCN(CCCCCC(=O)OC/C=C(\C)CCCC(C)CCCC(C)CCCC(C)C)CCN(C)C)CCCC(C)CCCC(C)CCCC(C)C (stereo not drawn) [Compound 2] |  |  | 5.64 |  |  | 23 ± 6 | 84 ± 24
5 | C/C(=C\COC(=O)CN(CCN(C)C)CC(=O)OC/C=C(\C)CCCC(C)CCCC(C)CCCC(C)C)CCCC(C)CCCC(C)CCCC(C)C (stereo not drawn) [Compound 3] |  |  | 7.15 |  |  | 1.5 ± 0.6 | 0.32 ± 0.1
6 | CCCCC(CC)C(=O)OCCCCCCCCCCCCN(CCCCCCCCCCCCOC(=O)C(CC)CCCC)CCN(C)C (stereo not drawn) [Compound 4] |  |  | 6.43 |  |  | 53 ± 10 | 126 ± 102
7 | CCCCCC(CCCC)OC(=O)CCCCCCCCCN(CCCCCCCCCC(=O)OC(CCCC)CCCCC)CCN(C)C (stereo not drawn) [Compound 11] |  |  | 6.36 |  |  | 328 ± 12 | 1266 ± 522
8 | CCCCCCCCOC(=O)CCCCCCCCCN(CCCCCCCCCC(=O)OCCCCCCCC)CCN(C)C [Compound 13] |  |  | 6.51 |  |  | 16 ± 4 | 20 ± 20
9 | CCCCCCCCCCCOC(=O)CCCCCCCCCN(CCCCCCCCCC(=O)OCCCCCCCCCCC)CCN(C)C [Compound 15] |  |  | 6.3 |  |  | 66 ± 32 | 243 ± 71
10 | CCCCCCCCCCCOC(=O)CCCCCCCN(CCCCCCCC(=O)OCCCCCCCCCCC)CCN(C)C [Compound 16] |  |  | 6.63 |  |  | 7 ± 1 | 14 ± 4
11 | CCCCCCCC/C=C/COC(=O)CCCCCCCN(CCCCCCCC(=O)OC/C=C/CCCCCCCC)CCN(C)C [Compound 19] |  |  | 6.72 |  |  | 8 ± 3 | 15 ± 21
12 | CCCCCCC(CCCC)COC(=O)CCCCCCCN(CCCCCCCC(=O)OCC(CCCC)CCCCCC)CCN(C)C (stereo not drawn) [Compound 20] |  |  | 6.44 |  |  | 301 ± 155 | 501 ± 96
13 | CCCCCCC(CCCC)COC(=O)CCCCCCCCCN(CCCCCCCCCC(=O)OCC(CCCC)CCCCCC)CCN(C)C (stereo not drawn) [Compound 21] |  |  | 6.28 |  |  | 404 ± 103 | 4149 ± 2514
14 | CCCCCCCCC(CCCCCC)COC(=O)CCCCCN(CCCCCC(=O)OCC(CCCCCC)CCCCCCCC)CCN(C)C (stereo not drawn) [Compound 22] |  |  | 6.53 |  |  | 2126 ± 294 | 14486 ± 6607
15 | CCCCCCCCC(CCCCCC)COC(=O)CCCCCCCN(CCCCCCCC(=O)OCC(CCCCCC)CCCCCCCC)CCN(C)C (stereo not drawn) [Compound 23] |  |  | 6.24 |  |  | 1109 ± 209 | 4568 ± 762
16 | CCCCCCCCCCC(C)OC(=O)CCCCCCCCCN(CCCCCCCCCC(=O)OC(C)CCCCCCCCCC)CCN(C)C (stereo not drawn) [Compound 24] |  |  | 6.28 |  |  | 1094 ± 180 | 6928 ± 1015

Second part, led by results:

Row | pKa ([2]; Table 5, in LNP) | pKa ([2]; Table 6, in LNP) | pKa [2, 5] | Compound | Liver Luc @ 0.3 mg/kg (ng luc/g liver) [1, 3] [ng luc/g liver] | Liver Luc @ 1.0 mg/kg (ng luc/g liver) [1, 3] [ng luc/g liver] | Liver Luc @ 0.3 mg/kg (ng luc/g liver) [1, 4] [ng luc/g liver] | Liver Luc @ 1.0 mg/kg (ng luc/g liver) [1, 4] [ng luc/g liver]
17 |  |  | 6.2 | CCCCCCCCC(CCCCCC)COC(=O)CCCCCCCCCN(CCCCCCCCCC(=O)OCC(CCCCCC)CCCCCCCC)CCN(C)C (stereo not drawn) [Compound 25] |  |  | 901 ± 173 | 6223 ± 1714
18 |  |  | 6.89 | CCCCC/C=C\C/C=C\CCCCCCCCOC(=O)CCCCCN(CCCCCC(=O)OCCCCCCCC/C=C\C/C=C\CCCCC)CCN(C)C [Compound 26] |  |  | 30 ± 5 | 55 ± 0.8
19 |  |  | 6.3 | CCCCCCCCCCC(CCCCCCCC)COC(=O)CCCCCN(CCCCCC(=O)OCC(CCCCCCCC)CCCCCCCCCC)CCN(C)C (stereo not drawn) [Compound 27] |  |  | 724 ± 144 | 6636 ± 1230
20 |  |  | 6.2 | CCCCCCCCCCC(CCCCCCCC)COC(=O)CCCCCCCN(CCCCCCCC(=O)OCC(CCCCCCCC)CCCCCCCCCC)CCN(C)C (stereo not drawn) [Compound 28] |  |  | 522 ± 86 | 4582 ± 1291
21 |  |  | 6.22 | CCCCCCC(CCCCCC)OC(=O)CCCCCCCCCN(CCCCCCCCCC(=O)OC(CCCCCC)CCCCCC)CCN(C)C [Compound 29] |  |  | 1303 ± 445 | 9750 ± 3519
22 |  |  | 6.33 | CCCCCCCCCCC(CCCCCCCC)COC(=O)CCCCCN(CCCCCC(=O)OCC(CCCCCCCC)CCCCCCCCCC)CCN1CCCC1 (stereo not drawn) [Compound 31] |  |  | 344 ± 160 | 4103 ± 1073
23 |  |  | 6.47 | CCCCCCCCC(CCCCCC)COC(=O)CCCCCN(CCCCCC(=O)OCC(CCCCCC)CCCCCCCC)CCN1CCCC1 (stereo not drawn) [Compound 32] |  |  | 626 ± 299 | 12266 ± 192
